Assay results: patent US20020037560A1, “Bicyclic terpenes and synthesis thereof” (priority 2000, published 2002)

Target: T1, Tobacco 5-epi-aristolochene synthase (TEAS) (Nicotiana tabacum, UniProt Q40577)
T1 construct: made in house
T1 sequence (Q40577 1-548): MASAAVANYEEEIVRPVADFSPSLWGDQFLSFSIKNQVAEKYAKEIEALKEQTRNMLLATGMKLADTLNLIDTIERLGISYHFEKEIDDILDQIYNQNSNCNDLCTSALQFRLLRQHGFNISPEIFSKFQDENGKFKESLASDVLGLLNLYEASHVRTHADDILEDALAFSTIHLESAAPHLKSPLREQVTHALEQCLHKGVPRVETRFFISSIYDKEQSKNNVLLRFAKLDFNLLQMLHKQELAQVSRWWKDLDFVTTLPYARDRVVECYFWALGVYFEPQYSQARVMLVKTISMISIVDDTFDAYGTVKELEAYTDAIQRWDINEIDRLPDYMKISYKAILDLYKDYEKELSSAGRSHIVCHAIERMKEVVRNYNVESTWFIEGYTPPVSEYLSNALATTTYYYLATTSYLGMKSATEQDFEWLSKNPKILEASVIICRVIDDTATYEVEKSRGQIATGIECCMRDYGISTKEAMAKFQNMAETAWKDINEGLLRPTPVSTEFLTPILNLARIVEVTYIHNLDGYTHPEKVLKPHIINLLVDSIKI
Test: TEAS activity assay (3H-FPP to 3H-5-epi-aristolochene, hexane partitioning)
Type: biochemical
Description: Kinetic Characterization of the Interaction of AGPP with TEAS. The assay for TEAS activity is based upon partitioning of the hydrophobic product (^3H-5-epi-aristolochene) into an organic solvent while the hydrophilic substrate (^3H-FPP) remains in the aqueous phase (i.e. Vögeli & Chappell, 1988; Back et al., 1994; Mathis et al. 1997). The Ki describing AGPP interaction with TEAS was characterized by measuring initial velocities for a matrix of reactions. Reactions (50 μl) containing 200 mM Tris-Cl, pH 7.5, 40 mM MgCl2, 50-250 nM TEAS, and 0.2 μCi ^3H-FPP, carrier-free or in combination with unlabeled FPP to give final substrate concentrations of 0.2-10 μM. Fixed concentrations of AGPP ranged from 0-150 μM. Reactions were initiated by the addition of enzyme and were incubated for 5 min. at 37° C. Reactions were quenched by vortexing against 150 μl hexane. After a brief centrifugation, 100 μl of the hexane phase was treated with approximately 20 mg of silica powder to remove any contaminating FPP or farnesol, the latter of which may be generated by contaminating phosphatase activity. Following vortexing and a brief centrifugation to pellet the silica, 50 μl of the hexane phase was mixed with 4 ml of liquid scintillation cocktail and analyzed for radioactivity (disintegrations per minute). Determination of reaction rate was based on percent conversion to product, the value for which was obtained by comparing the radioactivity in the hexane extract to that in an untreated aliquot of the assay mixture. […] Data were analyzed using Enzyme Kinetics V 1.5 (Trinity Software).
Kinetic Characterization of the Interaction of AGPP with TEAS. As a synthetic analog of FPP, AGPP (2) may potentially bind within the TEAS active site and thereby inhibit the sesquiterpene synthase activity of this enzyme. The nature of the potential interaction between TEAS and AGPP was characterized through a series of TEAS activity assays in which the ability of TEAS to produce ^3H-5-epi-aristolochene from ^3H-FPP was monitored in the presence of unlabeled AGPP. […]

SMILES | mode of inhibition of TEAS-catalyzed cyclization of FPP (Lineweaver-Burk plots, FIG. 1) (intersecting Lineweaver-Burk plots) | Ki (recombinant TEAS, 3H-FPP substrate 0.2-10 μM, AGPP 0-150 μM, 5 min at 37° C., read-out: Ki for the inhibition of TEAS activity) | Km (at 37° C., read-out: KM, TEAS utilization of FPP as a substrate)
C/C(=C\COP(=O)(O)OP(=O)(O)O)CC/C=C(\C)CNc1ccccc1 [AGPP, 8-anilino-geranyl pyrophosphate] | competitive inhibitor | 5.9 ± 1.8 µM | 
CC(C)=CCC/C(C)=C/CC/C(C)=C/COP(=O)(O)OP(=O)(O)O [FPP] |  |  | 5.4 µM
